ChEMBL document CHEMBL2163275, “The lipogenesis pathway as a cancer target” (J Med Chem, 2011)

What was measured:
[1] = Inhibition of duck liver FASN ketoreductase activity; parameters: species or system Anas platyrhynchos
[2] = Inhibition of duck liver FASN; parameters: species or system Anas platyrhynchos
Fatty acid synthase [3] = target: T1, Fatty acid synthase (Homo sapiens, UniProt P49327); assay: Inhibition of human recombinant FASN thioesterase domain
Target sequence in this assay (P49327 whole entry, the tested form may be a part): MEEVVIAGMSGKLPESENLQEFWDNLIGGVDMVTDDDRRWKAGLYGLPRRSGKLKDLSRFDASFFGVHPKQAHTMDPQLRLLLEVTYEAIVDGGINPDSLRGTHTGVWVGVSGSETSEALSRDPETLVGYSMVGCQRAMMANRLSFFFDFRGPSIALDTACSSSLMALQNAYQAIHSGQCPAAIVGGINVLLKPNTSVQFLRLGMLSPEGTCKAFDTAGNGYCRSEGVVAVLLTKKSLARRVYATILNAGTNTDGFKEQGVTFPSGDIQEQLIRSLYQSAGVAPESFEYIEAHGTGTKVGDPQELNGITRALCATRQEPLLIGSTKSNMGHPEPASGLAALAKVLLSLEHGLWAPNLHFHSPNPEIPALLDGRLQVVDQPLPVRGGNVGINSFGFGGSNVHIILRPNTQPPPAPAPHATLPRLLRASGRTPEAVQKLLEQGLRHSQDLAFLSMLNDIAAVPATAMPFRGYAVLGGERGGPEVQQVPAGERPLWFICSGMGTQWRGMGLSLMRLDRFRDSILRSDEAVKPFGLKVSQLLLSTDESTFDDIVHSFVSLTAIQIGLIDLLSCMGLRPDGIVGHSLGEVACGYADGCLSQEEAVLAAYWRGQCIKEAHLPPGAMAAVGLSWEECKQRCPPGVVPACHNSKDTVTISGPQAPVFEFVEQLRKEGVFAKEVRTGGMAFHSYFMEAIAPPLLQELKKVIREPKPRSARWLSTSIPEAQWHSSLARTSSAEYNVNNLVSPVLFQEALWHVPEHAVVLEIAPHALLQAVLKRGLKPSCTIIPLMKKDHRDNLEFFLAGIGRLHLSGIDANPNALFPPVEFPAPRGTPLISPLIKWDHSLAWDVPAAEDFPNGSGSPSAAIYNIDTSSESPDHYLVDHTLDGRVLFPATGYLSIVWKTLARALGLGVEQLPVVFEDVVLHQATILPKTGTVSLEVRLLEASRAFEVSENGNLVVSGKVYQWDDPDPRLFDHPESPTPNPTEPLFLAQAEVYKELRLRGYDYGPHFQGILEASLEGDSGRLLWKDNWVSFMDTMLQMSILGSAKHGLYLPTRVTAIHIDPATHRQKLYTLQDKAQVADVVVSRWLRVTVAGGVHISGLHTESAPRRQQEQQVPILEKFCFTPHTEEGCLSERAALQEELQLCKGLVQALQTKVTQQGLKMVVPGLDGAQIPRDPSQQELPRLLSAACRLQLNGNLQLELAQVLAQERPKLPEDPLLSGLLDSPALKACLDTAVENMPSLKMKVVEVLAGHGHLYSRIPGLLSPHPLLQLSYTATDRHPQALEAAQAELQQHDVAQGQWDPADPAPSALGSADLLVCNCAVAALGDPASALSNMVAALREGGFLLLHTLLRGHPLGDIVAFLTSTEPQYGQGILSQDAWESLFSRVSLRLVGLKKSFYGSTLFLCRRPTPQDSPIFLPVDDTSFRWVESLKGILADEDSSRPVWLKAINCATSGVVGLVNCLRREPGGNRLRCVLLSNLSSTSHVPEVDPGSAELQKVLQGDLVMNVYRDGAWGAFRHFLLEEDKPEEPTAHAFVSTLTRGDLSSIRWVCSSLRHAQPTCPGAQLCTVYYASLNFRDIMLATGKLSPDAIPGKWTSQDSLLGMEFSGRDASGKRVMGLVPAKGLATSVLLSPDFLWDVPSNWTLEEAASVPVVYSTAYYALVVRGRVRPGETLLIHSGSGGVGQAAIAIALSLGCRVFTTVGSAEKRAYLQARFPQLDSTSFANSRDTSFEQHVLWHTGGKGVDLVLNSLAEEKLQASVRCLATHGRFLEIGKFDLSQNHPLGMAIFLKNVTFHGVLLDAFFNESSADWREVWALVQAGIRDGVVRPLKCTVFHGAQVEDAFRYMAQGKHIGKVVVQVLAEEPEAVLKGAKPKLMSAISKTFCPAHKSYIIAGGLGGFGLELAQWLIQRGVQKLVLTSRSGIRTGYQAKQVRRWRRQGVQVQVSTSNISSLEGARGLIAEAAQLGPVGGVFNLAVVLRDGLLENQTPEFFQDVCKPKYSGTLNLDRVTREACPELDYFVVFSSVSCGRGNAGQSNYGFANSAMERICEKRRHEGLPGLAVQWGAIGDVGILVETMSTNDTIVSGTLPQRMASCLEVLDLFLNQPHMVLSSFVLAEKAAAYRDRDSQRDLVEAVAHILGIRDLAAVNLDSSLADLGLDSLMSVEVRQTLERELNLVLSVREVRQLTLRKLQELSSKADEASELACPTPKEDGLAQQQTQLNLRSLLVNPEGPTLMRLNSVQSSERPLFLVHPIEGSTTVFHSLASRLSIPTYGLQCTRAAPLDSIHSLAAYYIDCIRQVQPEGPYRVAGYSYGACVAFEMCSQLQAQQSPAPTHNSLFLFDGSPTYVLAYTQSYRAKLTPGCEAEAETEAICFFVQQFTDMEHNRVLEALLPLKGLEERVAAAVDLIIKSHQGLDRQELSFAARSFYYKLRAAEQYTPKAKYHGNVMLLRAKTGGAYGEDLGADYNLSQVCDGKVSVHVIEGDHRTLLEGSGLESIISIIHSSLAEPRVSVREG

Fatty acid synthase [4] = target: T2, Fatty acid synthase (Gallus gallus, UniProt P12276); assay: Inhibition of chicken liver FASN ketoreductase activity
ATP-citrate synthase [5] = target: T3, ATP-citrate synthase (Rattus norvegicus, UniProt P16638)
T3 sequence (P16638 whole entry): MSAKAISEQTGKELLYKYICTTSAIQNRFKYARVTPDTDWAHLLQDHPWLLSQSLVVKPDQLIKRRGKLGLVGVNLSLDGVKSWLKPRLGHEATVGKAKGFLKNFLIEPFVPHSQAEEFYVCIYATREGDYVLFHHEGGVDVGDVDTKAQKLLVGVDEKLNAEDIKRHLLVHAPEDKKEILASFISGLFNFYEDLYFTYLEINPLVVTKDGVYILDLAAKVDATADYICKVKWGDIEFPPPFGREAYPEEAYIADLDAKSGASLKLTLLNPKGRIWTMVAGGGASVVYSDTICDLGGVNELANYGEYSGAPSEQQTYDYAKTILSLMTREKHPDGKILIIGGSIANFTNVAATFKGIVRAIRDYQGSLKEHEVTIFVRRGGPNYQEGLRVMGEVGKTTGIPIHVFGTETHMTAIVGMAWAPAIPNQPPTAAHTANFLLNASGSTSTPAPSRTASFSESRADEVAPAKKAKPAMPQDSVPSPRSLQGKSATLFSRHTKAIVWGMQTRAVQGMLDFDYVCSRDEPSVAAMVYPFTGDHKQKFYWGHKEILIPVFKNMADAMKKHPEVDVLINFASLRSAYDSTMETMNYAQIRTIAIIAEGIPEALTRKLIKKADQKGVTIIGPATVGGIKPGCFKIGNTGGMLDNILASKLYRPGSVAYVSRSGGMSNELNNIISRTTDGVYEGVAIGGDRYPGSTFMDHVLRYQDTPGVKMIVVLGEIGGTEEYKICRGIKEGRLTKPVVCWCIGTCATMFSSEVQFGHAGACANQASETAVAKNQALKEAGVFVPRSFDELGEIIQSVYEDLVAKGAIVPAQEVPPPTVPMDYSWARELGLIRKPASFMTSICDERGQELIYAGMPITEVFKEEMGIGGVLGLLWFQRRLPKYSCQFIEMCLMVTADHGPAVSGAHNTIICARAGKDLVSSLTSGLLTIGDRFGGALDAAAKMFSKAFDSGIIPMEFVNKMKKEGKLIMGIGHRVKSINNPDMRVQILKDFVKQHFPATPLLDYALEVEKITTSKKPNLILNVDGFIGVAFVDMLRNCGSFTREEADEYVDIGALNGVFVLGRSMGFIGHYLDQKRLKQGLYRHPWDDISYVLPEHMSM
Description: Inhibition of rat liver ACLY

Fatty acid synthase [6] = target: T2, Fatty acid synthase; assay: Inhibition of chicken liver FASN
ATP-citrate synthase [7] = target: T4, ATP-citrate synthase (Homo sapiens, UniProt P53396); assay: Inhibition of human recombinant ACLY
T4 sequence (P53396 whole entry): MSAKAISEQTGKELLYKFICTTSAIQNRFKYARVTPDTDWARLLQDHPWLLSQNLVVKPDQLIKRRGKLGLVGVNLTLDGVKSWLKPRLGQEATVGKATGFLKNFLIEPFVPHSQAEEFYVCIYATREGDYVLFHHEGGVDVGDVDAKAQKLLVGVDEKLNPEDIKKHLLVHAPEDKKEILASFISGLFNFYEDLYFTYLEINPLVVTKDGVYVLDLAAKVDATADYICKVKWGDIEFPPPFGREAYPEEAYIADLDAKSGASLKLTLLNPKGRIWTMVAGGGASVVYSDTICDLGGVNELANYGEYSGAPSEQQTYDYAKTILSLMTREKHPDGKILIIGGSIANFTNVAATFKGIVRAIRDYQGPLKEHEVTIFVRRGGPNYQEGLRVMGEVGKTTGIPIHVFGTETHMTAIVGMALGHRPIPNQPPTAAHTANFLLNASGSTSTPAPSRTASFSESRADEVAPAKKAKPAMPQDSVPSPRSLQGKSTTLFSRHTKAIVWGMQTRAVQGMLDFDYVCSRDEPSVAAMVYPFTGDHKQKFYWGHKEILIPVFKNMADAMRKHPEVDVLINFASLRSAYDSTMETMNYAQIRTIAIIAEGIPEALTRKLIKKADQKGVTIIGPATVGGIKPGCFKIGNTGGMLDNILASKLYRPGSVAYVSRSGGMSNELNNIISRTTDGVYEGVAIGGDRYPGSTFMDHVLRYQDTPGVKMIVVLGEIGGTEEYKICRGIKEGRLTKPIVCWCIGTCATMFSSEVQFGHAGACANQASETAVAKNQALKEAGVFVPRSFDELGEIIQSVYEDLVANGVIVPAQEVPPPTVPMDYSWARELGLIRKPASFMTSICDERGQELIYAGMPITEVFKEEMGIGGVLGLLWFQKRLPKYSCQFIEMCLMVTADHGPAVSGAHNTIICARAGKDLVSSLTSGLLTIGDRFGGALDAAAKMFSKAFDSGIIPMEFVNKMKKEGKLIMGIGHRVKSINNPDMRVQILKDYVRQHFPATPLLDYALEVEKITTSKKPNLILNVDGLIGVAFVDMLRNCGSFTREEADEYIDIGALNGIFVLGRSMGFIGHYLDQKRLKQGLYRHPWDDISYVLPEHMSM

[8] = Inhibition of acetyl coA carboxylase in human MCF7 cells; format: cell-based
HepG2 = assay: Cytotoxicity against human HepG2 cells by MTT assay; format: functional, cell-based
[9] = Inhibition of Ustilago maydis recombinant ACC expressed in Escherichia coli BL21(DE3) using acetyl coA as substrate and [14C]NaHCO3 incubated for 10 mins prior to substrate addition by liquid scintillation counting; parameters: species or system Mycosarcoma maydis
MDA-MB-435 [10] = assay: Cytotoxicity against human MDA-MB-435 cells; format: functional, cell-based
MDA-MB-435 [11] = assay: Selectivity ratio of IC50 for human MCF10A to IC50 for human MDA-MB-435 cells
Fatty acid synthase [12] = target: T1, Fatty acid synthase; assay: Antagonist activity at human recombinant FASN thioesterase domain by fluorogenic assay; format: functional
Target sequence in this assay (P49327 whole entry, the tested form may be a part): as the sequence (P49327 whole entry, the tested form may be a part) above

Fatty acid synthase [13] = target: T1, Fatty acid synthase; assay: Inhibition of FASN in human SKBR3 cells at 21 uM after 3 mins by spectrophotometric analysis relative to control; format: cell-based; conditions: SK-BR-3
Target sequence in this assay (P49327 whole entry, looked up, the tested form may be a part): as the sequence (P49327 whole entry, the tested form may be a part) above

Fatty acid synthase [14] = target: T1, Fatty acid synthase; assay: Inhibition of FASN in human A375 cells; format: cell-based, A-375
Target sequence in this assay (P49327 whole entry, the tested form may be a part): as the sequence (P49327 whole entry, the tested form may be a part) above

T2 sequence (P12276 whole entry): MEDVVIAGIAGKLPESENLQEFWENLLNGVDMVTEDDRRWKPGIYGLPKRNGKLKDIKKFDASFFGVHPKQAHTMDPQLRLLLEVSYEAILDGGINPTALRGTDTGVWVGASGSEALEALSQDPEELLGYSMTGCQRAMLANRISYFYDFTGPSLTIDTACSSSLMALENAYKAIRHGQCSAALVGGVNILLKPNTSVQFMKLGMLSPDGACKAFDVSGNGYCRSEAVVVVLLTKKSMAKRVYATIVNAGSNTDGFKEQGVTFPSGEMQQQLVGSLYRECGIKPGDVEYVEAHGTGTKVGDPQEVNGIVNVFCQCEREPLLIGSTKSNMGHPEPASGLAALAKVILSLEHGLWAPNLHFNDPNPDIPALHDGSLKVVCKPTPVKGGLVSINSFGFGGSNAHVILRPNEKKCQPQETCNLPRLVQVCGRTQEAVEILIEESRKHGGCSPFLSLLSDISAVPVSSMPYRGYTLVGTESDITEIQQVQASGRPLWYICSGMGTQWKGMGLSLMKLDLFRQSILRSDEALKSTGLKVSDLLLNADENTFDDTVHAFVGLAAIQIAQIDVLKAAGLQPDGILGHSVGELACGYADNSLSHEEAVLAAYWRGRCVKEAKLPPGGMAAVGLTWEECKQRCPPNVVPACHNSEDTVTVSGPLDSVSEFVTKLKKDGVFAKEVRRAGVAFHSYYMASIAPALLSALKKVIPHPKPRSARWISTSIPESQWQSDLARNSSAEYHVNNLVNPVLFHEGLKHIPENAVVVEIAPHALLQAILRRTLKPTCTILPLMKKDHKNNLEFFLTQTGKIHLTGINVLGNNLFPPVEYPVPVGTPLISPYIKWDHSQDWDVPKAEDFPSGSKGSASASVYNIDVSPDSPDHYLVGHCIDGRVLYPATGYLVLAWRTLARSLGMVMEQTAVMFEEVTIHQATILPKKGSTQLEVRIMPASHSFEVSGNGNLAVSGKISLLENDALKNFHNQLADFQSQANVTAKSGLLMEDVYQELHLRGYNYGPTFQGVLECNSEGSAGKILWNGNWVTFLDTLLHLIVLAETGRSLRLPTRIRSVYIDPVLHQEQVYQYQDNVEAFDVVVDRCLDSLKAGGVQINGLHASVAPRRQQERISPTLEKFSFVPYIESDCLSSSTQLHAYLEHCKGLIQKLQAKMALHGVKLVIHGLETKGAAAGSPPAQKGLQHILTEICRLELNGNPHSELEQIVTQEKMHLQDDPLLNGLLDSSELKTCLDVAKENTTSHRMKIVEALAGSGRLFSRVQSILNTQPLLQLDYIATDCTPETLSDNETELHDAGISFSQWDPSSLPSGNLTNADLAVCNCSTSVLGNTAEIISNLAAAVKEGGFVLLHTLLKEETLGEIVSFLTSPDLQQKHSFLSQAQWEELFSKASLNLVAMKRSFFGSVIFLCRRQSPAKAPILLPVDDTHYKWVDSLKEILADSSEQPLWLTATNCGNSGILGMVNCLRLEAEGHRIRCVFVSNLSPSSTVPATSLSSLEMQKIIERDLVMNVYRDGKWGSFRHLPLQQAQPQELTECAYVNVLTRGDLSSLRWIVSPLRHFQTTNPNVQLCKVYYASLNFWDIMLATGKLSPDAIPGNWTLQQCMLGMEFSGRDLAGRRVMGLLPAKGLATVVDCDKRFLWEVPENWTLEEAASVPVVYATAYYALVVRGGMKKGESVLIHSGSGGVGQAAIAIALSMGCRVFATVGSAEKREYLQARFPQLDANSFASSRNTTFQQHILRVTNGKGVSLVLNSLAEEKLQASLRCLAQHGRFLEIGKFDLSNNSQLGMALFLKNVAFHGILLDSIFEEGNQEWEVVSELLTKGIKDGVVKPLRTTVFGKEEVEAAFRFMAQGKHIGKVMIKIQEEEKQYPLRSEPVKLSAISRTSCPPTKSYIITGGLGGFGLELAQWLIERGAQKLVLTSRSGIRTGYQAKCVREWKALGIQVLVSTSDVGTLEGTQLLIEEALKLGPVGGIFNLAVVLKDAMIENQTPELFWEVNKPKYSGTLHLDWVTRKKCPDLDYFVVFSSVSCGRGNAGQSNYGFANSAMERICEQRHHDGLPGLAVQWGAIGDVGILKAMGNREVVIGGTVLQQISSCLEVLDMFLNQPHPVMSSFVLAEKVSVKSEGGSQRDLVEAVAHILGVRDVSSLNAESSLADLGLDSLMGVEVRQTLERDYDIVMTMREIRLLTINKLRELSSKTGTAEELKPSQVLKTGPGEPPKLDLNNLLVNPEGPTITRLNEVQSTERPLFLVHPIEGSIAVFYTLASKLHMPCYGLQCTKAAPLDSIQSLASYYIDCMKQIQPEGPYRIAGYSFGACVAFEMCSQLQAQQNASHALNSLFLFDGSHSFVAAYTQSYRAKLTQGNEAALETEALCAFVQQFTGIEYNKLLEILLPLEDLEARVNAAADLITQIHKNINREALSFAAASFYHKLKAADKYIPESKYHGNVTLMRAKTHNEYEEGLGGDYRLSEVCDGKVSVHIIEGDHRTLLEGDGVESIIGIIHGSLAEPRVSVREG

O=C(/C=C/c1ccc(O)cc1)c1ccc(O)cc1O [ISOLIQUIRITIGENIN]
IC50 [1]: 141 µM
IC50 [2]: 8.8 µM

H-RKQEEDEDEEQQRE-OH
IC50 (Fatty acid synthase [3]): 11 µM
IC50 (Fatty acid synthase [4]): 16 µM

O=C(O)C[C@@]1(C(=O)O)O[C@H]1C(=O)O
Ki (ATP-citrate synthase [5]): 18 µM

C[C@H]1[C@H](C)CC[C@]2(C(=O)O)CC[C@]3(C)C(=CC[C@@H]4[C@@]5(C)CC[C@H](O)C(C)(C)[C@@H]5CC[C@]43C)[C@H]12 [URSOLIC ACID]
IC50 (Fatty acid synthase [6]): 13.1 µM
IC50 (Fatty acid synthase [4]): 59.3 µM

O=C(O[C@@H]1Cc2c(O)cc(O)cc2O[C@@H]1c1cc(O)c(O)c(O)c1)c1cc(O)c(O)c(O)c1 [EPIGALOCATECHIN GALLATE]
IC50 (Fatty acid synthase [6]): 52 µM
IC50 (Fatty acid synthase [4]): 100 µM

O=C(O)C[C@](O)(C[C@@H](O)CCCCCn1c(-c2ccccc2)cc2cc(Cl)ccc21)C(=O)O (racemic)
Ki (ATP-citrate synthase [7]): 370 nM

O=C(O)C[C@](O)(C[C@@H](O)CCCCCC1c2ccccc2-c2cc(Cl)ccc21)C(=O)O (mixture of isomers)
Ki (ATP-citrate synthase [7]): 220 nM

CCCCCCCCCCCCCCOc1ccc(C(=O)O)o1 [TOFA]
IC50 [8]: 12.3 µM

O=c1c(O)c(-c2ccc(O)cc2)oc2cc(O)cc(O)c12 [KAEMPFEROL]
IC50 [2]: 10.4 µM
IC50 (HepG2): > 400 µM

O=c1c(O)c(-c2ccc(O)c(O)c2)oc2cc(O)cc(O)c12 [QUERCETIN]
IC50 [2]: 4.29 µM
IC50 (HepG2): 30.9 µM

Cc1cc(O)c2c(c1)Cc1cc(O)c(Cl)c(O)c1C2=O
IC50 (ATP-citrate synthase [5]): 283 nM

CO[C@H]1CCCC[C@@H](c2ccccc2)OC(=O)[C@@H](C)[C@@]2(O)O[C@H]([C@@H](C)[C@H](O)[C@H]2OC)[C@@H](C)/C=C/[C@H]1OC [SORAPHEN A]
Ki [9]: 2.1 nM

O=c1c(O)c(-c2ccc(O)cc2O)oc2cc(O)cc(O)c12 [MORIN]
IC50 [1]: 26 µM
IC50 [2]: 2.3 µM

Cc1cc(C)cc(N2C(=O)NC(=O)/C(=C\c3ccc(-c4ccccc4)o3)C2=O)c1
IC50 (MDA-MB-435 [10]): 3.47 µM
Ratio IC50 (MDA-MB-435 [11]): 2
Ki (Fatty acid synthase [12]): 380 nM

Cc1cn(-c2cc(Cl)ccc2CCCCCC[C@H](O)C[C@@](O)(CC(=O)O)C(=O)O)cc1C (racemic)
Ki (ATP-citrate synthase [7]): 300 nM

O=C(Oc1cc(OC(=O)c2cc(O)c(O)c(O)c2)c2ccccc2c1)c1cc(O)c(O)c(O)c1
inhibition (Fatty acid synthase [13]): 90%

C/C=C/C/C=C/CCC(=O)[C@H]1O[C@H]1C(N)=O [CERULENIN]
IC50 (Fatty acid synthase [14]): 21.9 µM

Cc1cn(-c2cc(Cl)ccc2CCCCCC[C@H](O)C[C@@](O)(CC(=O)O)C(=O)O)cc1C (stereo in doubt; 134)
Ki (ATP-citrate synthase [7]): 580 nM

O=c1c(O)c(-c2ccc(O)c(O)c2)oc2cc(O)ccc12 [FISETIN]
IC50 [2]: 18.8 µM
IC50 (HepG2): > 400 µM

C=C1C(=O)O[C@H](CCCCCCCC)[C@H]1C(=O)O (relative stereo)
IC50 (Fatty acid synthase [3]): 59 µM
IC50 (Fatty acid synthase [14]): 32.4 µM
IC50 (Fatty acid synthase [4]): 80 µM
